Assay results reported in patent publication US20190263796A1, “LIM KINASE INHIBITORS, PHARMACEUTICAL COMPOSITION AND METHOD OF USE IN LIMK-MEDIATED DISEASES” (CELLIPSE, priority 2016, published 2019).

Assays:
[1] = test system: Phospho-Ser3-Cofilin/Total Cofilin; assay: Western blot of cellular cofilin phosphorylation status, MV4-11 (II.4); assay type: cell-based; details: Homo sapiens; MV4-11 cells; 2 h treatment
Description: MV4-11 cell line was originally purchased from the American Type Culture Collection (ATCC). MV4-11 cells are cultured in RPMI 1640 10% (v/v) FBS supplemented with 100 U/mL^−1 penicillin, 0.1 mg·mL^−1 streptomycin (PAN Biotech P06-07100) and 2 mM Glutamine (Sigma-Aldrich 59202C). Cells were maintained at 37° C. with 5% CO2.
In a 6 wells plate (Falcon 353046), 2·10^6 cells in 1.5 mL medium are treated for 2 h with compounds. Cells are then collected and cell lysis is performed at 4° C. using RIPA buffer supplemented with protease inhibitors cocktail (Sigma-Aldrich P8340) and phosphatase inhibitors cocktail (Sigma-Aldrich P5726). Following centrifugation 30 min 15000 g 4° C., supernatants are mixed with Laemmli buffer and denaturation is performed by heating 5 min 95° C. 10 μL of samples are subjected to electrophoresis on 15% SDS-PAGE. After electro-transfer (Mini Transblot, Bio-Rad), the PVDF membrane (Merck-Millipore Immobilon P IPVH00010) is blocked with Tris Buffered Saline, pH 7.4 (TBS) with 0.1% Tween 20 and 5% BSA for 1 h RT under agitation. The membrane was rinsed 3 times 10 min RT under agitation with TBS, 0.1% Tween-20 (TBST) and then 1 h RT with anti-phospho-Ser3-cofilin (Cell Signaling Technology #3313, 1/1000 dilution) antibody or anti-cofilin (Cell Signaling Technology #3312, 1/1000 dilution) diluted in TBS, 0.1% Tween 20 and 1% BSA. The membrane is then rinsed 3 times 10 min RT under agitation in TBST and incubated for 1 hour with anti-rabbit secondary antibody, horseradish peroxidase conjugated (Jackson Immunoresearch #711-036-152) under agitation at room temperature. After three washes 10 min RT in TBST, the detection of total or phosphorylated cofilin was performed using chemiluminescence kit ECL™ Plus (GE Healthcare RPN2132). For each concentration of compound, ratio between phosphorylated cofilin and total cofilin is determined. This ratio is then expressed as percentage of control ratio (i.e ratio from DMSO treated cells). IC50 is then determined.

Abl(h) = target: T1, Abl(h) (Homo sapiens, UniProt P00519); assay: KinaseProfiler panel: Abl(h); assay type: biochemical; details: residual activity, 5 μM inhibitor, Km ATP
T1 construct: purchased Merck-Millipore (KinaseProfiler panel service)
Description: (§1) Kinase selectivity was performed on a panel of 58 recombinant protein kinases. The assays were performed in the presence of 5 μM inhibitor at the respective Km ATP for each kinase, using the KinaseProfiler panel service (Merck-Millipore). Residual activity measured in the presence of […] inhibitor is expressed as the percent of activity determined in the absence of inhibitor.

ALK(h) = target: T2, ALK(h) (Homo sapiens, UniProt Q9UM73); assay: KinaseProfiler panel: ALK(h); assay type: biochemical; details: residual activity, 5 μM inhibitor, Km ATP
T2 construct: purchased Merck-Millipore (KinaseProfiler panel service)
Description: as §1

Aurora-A(h) = target: T3, Aurora-A(h) (Homo sapiens, UniProt O14965); assay: KinaseProfiler panel: Aurora-A(h); assay type: biochemical; details: residual activity, 5 μM inhibitor, Km ATP
T3 construct: purchased Merck-Millipore (KinaseProfiler panel service)
Description: as §1

Aurora-B(h) = target: T4, Aurora-B(h) (Homo sapiens, UniProt Q96GD4); assay: KinaseProfiler panel: Aurora-B(h); assay type: biochemical; details: residual activity, 5 μM inhibitor, Km ATP
T4 construct: purchased Merck-Millipore (KinaseProfiler panel service)
Description: as §1

B-Raf(V599E)(h) = target: T5, B-Raf(V599E)(h) (Homo sapiens, UniProt P15056, V600E); assay: KinaseProfiler panel: B-Raf(V599E)(h); assay type: biochemical; details: residual activity, 5 μM inhibitor, Km ATP
T5 construct: purchased Merck-Millipore (KinaseProfiler panel service)
Description: as §1

CaMKIIδ(h) = target: T6, CaMKIIδ(h) (Homo sapiens, UniProt Q13557); assay: KinaseProfiler panel: CaMKIIδ(h); assay type: biochemical; details: residual activity, 5 μM inhibitor, Km ATP
T6 construct: purchased Merck-Millipore (KinaseProfiler panel service)
Description: as §1

cKit(h) = target: T7, cKit(h) (Homo sapiens, UniProt P10721); assay: KinaseProfiler panel: cKit(h); assay type: biochemical; details: residual activity, 5 μM inhibitor, Km ATP
T7 construct: purchased Merck-Millipore (KinaseProfiler panel service)
Description: as §1

cKit(V560G)(h) = target: T8, cKit(V560G)(h) (Homo sapiens, UniProt P10721, V560G); assay: KinaseProfiler panel: cKit(V560G)(h); assay type: biochemical; details: residual activity, 5 μM inhibitor, Km ATP
T8 construct: purchased Merck-Millipore (KinaseProfiler panel service)
Description: as §1

Flt3(D835Y)(h) = target: T9, Flt3(D835Y)(h) (Homo sapiens, UniProt P36888, D835Y); assay: KinaseProfiler panel: Flt3(D835Y)(h); assay type: biochemical; details: residual activity, 5 μM inhibitor, Km ATP
T9 construct: purchased Merck-Millipore (KinaseProfiler panel service)
Description: as §1

Flt3(h) = target: T10, Flt3(h) (Homo sapiens, UniProt P36888); assay: KinaseProfiler panel: Flt3(h); assay type: biochemical; details: residual activity, 5 μM inhibitor, Km ATP
T10 construct: purchased Merck-Millipore (KinaseProfiler panel service)
Description: as §1

Flt4(h) = target: T11, Flt4(h) (Homo sapiens, UniProt P35916); assay: KinaseProfiler panel: Flt4(h); assay type: biochemical; details: residual activity, 5 μM inhibitor, Km ATP
T11 construct: purchased Merck-Millipore (KinaseProfiler panel service)
Description: as §1

GSK3β(h) = target: T12, GSK3β(h) (Homo sapiens, UniProt P49841); assay: KinaseProfiler panel: GSK3β(h); assay type: biochemical; details: residual activity, 5 μM inhibitor, Km ATP
T12 construct: purchased Merck-Millipore (KinaseProfiler panel service)
Description: as §1

IR(h), activated = target: T13, IR(h), activated (Homo sapiens, UniProt P06213); assay: KinaseProfiler panel: IR(h), activated; assay type: biochemical; details: residual activity, 5 μM inhibitor, Km ATP
T13 construct: purchased Merck-Millipore (KinaseProfiler panel service)
Description: as §1

JAK2(h) = target: T14, JAK2(h) (Homo sapiens, UniProt O60674); assay: KinaseProfiler panel: JAK2(h); assay type: biochemical; details: residual activity, 5 μM inhibitor, Km ATP
T14 construct: purchased Merck-Millipore (KinaseProfiler panel service)
Description: as §1

KDR(h) = target: T15, KDR(h) (Homo sapiens, UniProt P35968); assay: KinaseProfiler panel: KDR(h); assay type: biochemical; details: residual activity, 5 μM inhibitor, Km ATP
T15 construct: purchased Merck-Millipore (KinaseProfiler panel service)
Description: as §1

PAK5(h) = target: T16, PAK5(h) (Homo sapiens, UniProt Q9P286); assay: KinaseProfiler panel: PAK5(h); assay type: biochemical; details: residual activity, 5 μM inhibitor, Km ATP
T16 construct: purchased Merck-Millipore (KinaseProfiler panel service)
Description: as §1

PDGFRα(h) = target: T17, PDGFRα(h) (Homo sapiens, UniProt P16234); assay: KinaseProfiler panel: PDGFRα(h); assay type: biochemical; details: residual activity, 5 μM inhibitor, Km ATP
T17 construct: purchased Merck-Millipore (KinaseProfiler panel service)
Description: as §1

PKCα(h) = target: T18, PKCα(h) (Homo sapiens, UniProt P17252); assay: KinaseProfiler panel: PKCα(h); assay type: biochemical; details: residual activity, 5 μM inhibitor, Km ATP
T18 construct: purchased Merck-Millipore (KinaseProfiler panel service)
Description: as §1

Ret(h) = target: T19, Ret(h) (Homo sapiens, UniProt P07949); assay: KinaseProfiler panel: Ret(h); assay type: biochemical; details: residual activity, 5 μM inhibitor, Km ATP
T19 construct: purchased Merck-Millipore (KinaseProfiler panel service)
Description: as §1

ROCK-I(h) = target: T20, ROCK-I(h) (Homo sapiens, UniProt Q13464); assay: KinaseProfiler panel: ROCK-I(h); assay type: biochemical; details: residual activity, 5 μM inhibitor, Km ATP
T20 construct: purchased Merck-Millipore (KinaseProfiler panel service)
Description: as §1

ROCK-II(h) = target: T21, ROCK-II(h) (Homo sapiens, UniProt O75116); assay: KinaseProfiler panel: ROCK-II(h); assay type: biochemical; details: residual activity, 5 μM inhibitor, Km ATP
T21 construct: purchased Merck-Millipore (KinaseProfiler panel service)
Description: as §1

TAK1(h) = target: T22, TAK1(h) (Homo sapiens, UniProt O43318); assay: KinaseProfiler panel: TAK1(h); assay type: biochemical; details: residual activity, 5 μM inhibitor, Km ATP
T22 construct: purchased Merck-Millipore (KinaseProfiler panel service)
Description: as §1

TrkB(h) = target: T23, TrkB(h) (Homo sapiens, UniProt Q16620); assay: KinaseProfiler panel: TrkB(h); assay type: biochemical; details: residual activity, 5 μM inhibitor, Km ATP
T23 construct: purchased Merck-Millipore (KinaseProfiler panel service)
Description: as §1

[2] = target: T24, PI3 Kinase (p110a(E542K)/p85a)(h) (Homo sapiens, UniProt P42336, E542K); assay: KinaseProfiler panel: PI3 Kinase (p110a(E542K)/p85a)(h); assay type: biochemical; details: residual activity, 5 μM inhibitor, Km ATP
T24 construct: purchased Merck-Millipore (KinaseProfiler panel service)
Description: as §1

T17 sequence (P16234 24-1089): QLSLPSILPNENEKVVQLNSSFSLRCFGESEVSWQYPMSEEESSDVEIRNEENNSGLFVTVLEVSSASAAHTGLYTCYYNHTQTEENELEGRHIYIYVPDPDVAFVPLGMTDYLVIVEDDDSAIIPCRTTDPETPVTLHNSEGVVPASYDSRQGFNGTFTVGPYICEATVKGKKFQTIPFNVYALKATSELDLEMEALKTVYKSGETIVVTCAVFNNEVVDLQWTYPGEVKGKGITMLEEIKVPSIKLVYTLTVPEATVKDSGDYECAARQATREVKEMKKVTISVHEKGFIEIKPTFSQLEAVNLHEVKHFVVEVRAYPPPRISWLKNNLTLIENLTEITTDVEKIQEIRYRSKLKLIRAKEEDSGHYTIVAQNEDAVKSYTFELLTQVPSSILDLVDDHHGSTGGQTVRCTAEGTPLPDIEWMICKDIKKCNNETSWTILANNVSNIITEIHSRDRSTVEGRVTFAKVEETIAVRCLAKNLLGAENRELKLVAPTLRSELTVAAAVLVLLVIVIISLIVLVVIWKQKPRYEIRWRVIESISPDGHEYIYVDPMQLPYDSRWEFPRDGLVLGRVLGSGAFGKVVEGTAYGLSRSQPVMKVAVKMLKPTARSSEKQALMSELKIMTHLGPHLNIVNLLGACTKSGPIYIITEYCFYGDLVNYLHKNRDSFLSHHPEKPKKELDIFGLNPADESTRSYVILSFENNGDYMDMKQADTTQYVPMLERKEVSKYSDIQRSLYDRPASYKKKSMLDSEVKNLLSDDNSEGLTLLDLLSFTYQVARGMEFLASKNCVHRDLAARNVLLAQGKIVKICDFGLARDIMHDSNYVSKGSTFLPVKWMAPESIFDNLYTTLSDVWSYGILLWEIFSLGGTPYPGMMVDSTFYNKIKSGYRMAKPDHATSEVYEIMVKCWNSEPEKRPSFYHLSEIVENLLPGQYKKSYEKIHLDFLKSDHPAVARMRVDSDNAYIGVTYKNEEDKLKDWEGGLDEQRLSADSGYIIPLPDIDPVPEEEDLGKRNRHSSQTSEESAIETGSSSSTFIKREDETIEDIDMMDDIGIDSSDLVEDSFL
T20 sequence (Q13464 whole entry): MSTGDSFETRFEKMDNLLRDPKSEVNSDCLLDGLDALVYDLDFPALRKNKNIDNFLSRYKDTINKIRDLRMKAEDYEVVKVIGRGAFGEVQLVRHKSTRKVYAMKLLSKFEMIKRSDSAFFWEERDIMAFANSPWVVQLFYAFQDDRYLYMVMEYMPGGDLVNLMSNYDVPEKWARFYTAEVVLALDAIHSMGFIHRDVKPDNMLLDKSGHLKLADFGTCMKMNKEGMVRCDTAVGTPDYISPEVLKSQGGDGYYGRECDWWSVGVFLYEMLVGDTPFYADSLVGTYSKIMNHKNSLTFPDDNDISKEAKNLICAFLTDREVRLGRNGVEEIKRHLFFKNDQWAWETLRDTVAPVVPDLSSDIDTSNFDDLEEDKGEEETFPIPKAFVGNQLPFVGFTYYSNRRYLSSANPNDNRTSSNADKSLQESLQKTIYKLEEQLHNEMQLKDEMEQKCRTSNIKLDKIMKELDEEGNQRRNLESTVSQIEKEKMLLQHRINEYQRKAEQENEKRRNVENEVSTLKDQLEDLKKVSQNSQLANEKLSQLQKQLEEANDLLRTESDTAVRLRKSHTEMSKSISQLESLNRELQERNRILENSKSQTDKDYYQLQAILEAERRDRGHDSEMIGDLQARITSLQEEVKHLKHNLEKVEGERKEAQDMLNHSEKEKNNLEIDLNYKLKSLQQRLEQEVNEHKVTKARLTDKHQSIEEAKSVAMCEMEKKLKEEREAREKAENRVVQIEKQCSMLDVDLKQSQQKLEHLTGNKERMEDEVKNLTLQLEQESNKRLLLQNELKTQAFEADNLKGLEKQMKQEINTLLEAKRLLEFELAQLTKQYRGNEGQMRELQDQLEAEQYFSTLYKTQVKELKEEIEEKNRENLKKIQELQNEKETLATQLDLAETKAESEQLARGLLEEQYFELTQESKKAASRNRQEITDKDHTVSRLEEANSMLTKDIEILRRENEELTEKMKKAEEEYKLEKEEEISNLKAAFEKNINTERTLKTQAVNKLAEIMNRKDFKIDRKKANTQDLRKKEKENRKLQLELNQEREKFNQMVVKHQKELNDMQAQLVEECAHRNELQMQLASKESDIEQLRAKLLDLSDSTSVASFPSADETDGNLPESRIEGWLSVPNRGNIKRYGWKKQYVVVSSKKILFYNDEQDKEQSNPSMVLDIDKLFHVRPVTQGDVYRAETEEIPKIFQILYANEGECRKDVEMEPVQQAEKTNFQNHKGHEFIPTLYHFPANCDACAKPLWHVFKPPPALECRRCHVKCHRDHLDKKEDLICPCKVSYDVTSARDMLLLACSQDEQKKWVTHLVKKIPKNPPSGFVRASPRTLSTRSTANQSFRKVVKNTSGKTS
T22 sequence (O43318 1-303 limits assumed): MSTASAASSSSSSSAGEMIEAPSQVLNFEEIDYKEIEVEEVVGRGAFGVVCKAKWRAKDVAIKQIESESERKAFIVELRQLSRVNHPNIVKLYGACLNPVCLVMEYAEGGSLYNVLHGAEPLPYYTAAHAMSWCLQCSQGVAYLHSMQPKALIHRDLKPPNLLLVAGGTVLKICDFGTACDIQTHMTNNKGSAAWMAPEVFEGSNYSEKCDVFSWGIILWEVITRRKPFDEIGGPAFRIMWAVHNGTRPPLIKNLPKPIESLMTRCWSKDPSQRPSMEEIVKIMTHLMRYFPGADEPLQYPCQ
T3 sequence (O14965 whole entry): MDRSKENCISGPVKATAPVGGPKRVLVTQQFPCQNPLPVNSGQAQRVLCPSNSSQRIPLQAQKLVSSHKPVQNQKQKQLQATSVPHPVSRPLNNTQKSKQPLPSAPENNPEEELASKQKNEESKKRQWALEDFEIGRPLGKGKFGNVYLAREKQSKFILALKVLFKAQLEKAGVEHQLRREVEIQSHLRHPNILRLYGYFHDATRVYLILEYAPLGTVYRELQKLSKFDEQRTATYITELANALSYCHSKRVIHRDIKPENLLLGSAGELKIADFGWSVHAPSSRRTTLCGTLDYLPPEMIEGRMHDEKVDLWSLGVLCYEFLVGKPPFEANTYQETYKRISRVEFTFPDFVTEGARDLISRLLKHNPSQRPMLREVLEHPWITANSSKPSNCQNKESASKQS
T21 sequence (O75116 whole entry): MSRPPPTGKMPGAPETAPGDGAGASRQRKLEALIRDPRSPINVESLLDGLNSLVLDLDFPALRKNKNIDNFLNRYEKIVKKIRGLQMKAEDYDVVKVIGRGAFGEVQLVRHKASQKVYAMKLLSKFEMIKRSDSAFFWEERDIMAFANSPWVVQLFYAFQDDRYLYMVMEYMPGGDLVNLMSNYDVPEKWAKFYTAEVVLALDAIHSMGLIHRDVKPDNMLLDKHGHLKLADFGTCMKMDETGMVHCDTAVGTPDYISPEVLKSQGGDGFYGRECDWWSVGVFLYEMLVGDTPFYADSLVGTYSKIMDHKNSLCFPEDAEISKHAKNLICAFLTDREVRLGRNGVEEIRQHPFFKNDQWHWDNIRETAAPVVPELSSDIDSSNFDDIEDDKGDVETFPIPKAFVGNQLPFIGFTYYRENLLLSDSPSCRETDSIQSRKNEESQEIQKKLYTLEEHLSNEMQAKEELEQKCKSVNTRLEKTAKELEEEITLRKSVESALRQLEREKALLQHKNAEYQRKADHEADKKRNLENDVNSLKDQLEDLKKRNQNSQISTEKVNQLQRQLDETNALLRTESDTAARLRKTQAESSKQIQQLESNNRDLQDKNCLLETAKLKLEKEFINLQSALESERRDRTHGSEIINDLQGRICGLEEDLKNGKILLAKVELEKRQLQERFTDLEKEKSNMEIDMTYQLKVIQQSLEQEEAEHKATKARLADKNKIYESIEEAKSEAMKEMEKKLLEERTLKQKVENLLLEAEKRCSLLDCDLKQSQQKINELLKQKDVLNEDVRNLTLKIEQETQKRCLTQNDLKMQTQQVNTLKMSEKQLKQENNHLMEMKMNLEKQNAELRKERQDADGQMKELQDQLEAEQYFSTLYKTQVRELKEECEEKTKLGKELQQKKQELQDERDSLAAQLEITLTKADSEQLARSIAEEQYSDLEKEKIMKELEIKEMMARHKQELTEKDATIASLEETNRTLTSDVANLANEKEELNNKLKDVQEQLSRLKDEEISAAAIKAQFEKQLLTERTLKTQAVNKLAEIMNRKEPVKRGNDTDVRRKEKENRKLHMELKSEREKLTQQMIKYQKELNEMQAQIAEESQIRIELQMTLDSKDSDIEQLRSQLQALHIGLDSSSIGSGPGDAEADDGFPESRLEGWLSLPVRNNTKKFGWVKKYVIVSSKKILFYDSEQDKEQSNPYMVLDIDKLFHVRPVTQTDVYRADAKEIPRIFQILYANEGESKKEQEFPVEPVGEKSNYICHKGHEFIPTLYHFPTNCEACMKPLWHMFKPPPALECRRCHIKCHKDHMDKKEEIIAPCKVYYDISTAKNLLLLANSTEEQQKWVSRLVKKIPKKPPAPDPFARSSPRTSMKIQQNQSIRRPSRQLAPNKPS
T5 sequence (P15056 416-766 V600E limits assumed): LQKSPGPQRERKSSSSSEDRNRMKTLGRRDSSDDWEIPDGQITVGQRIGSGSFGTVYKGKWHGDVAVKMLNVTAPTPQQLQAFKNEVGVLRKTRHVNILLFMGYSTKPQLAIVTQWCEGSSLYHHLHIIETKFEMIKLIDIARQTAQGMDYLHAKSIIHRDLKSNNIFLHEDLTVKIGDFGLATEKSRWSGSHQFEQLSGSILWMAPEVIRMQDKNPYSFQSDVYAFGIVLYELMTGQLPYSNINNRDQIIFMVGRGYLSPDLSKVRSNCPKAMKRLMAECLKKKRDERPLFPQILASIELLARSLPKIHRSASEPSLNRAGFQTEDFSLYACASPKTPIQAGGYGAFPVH

CC(C)(C)c1nc(-c2cccc(NS(=O)(=O)c3c(F)cccc3F)c2F)c(-c2ccnc(Nc3ccccc3)n2)s1 [Compound 1, N-(3-(2-(tert-butyl)-5-(2-(phenylamino)pyrimidin-4-yl)thiazol-4-yl)-2-fluorophenyl)-2,6-difluorobenzenesulfonamide]
10 to 50%: activity at 5 µM (Aurora-B(h)) | activity at 5 µM (cKit(V560G)(h)) | activity at 5 µM (KDR(h)) | activity at 5 µM (Ret(h))
≥ 50%: activity at 5 µM (Abl(h)) | activity at 5 µM (ALK(h)) | activity at 5 µM (Aurora-A(h)) | activity at 5 µM (CaMKIIδ(h)) | activity at 5 µM (cKit(h)) | activity at 5 µM (Flt3(D835Y)(h)) | activity at 5 µM (Flt3(h)) | activity at 5 µM (GSK3β(h)) | activity at 5 µM (IR(h), activated) | activity at 5 µM (JAK2(h)) | activity at 5 µM (PAK5(h)) | activity at 5 µM (PDGFRα(h)) | activity at 5 µM (PKCα(h)) | activity at 5 µM (ROCK-I(h)) | activity at 5 µM (ROCK-II(h)) | activity at 5 µM (TAK1(h)) | activity at 5 µM (TrkB(h)) | activity at 5 µM [2]
< 200 nM: IC50 [1]
3 to 10%: activity at 5 µM (B-Raf(V599E)(h)) | activity at 5 µM (Flt4(h))
